Measurements from US9522124B2, “Methods for treating Alzheimer's disease” (Wisconsin Alumni Research Foundation, priority 2011, dated 2016).

How the values were obtained:
Aβ = assay: ELISA determination of secreted Aβ in conditioned media of H4 cells; assay type: cell-based, human; settings: 10 μM, 48 hours
Method: For Aβ determinations in the conditioned media, H4 cells were plated in 6-well Petri dishes. When 80-90% confluent, cells were washed in PBS and incubated in 1 ml of fresh medium for 48 hr. Secreted Aβ was determined by standard sandwich ELISA as described before (Costantini et al., 2007; Costantini et al., 2006; Jonas et al., 2008; Jonas et al., 2010; Ko and Puglielli, 2009; Pehar et al., 2010). For each sample, the levels of Aβ40, Aβ42, and Aβtotal were quantified as triplicate based upon standard curves run (on every ELISA plate) and then expressed as pmol Aβ/mg of protein. Aβ42 was constantly found to be ˜25% of total Aβ values.

C99 = assay: Western blot assessment of C99 levels in H4 cell lysates; assay type: cell-based, human; settings: H4 cells, 48 hours
Method: FIG. 7. Compound 9 and 19 decrease levels and activity of BACE1. H4 cells were treated with either compound 9 or 19 for 48 hours prior to Western blot assessment of BACE1 and C99 levels in cell lysates. C99 is the immediate product of BACE1-mediated cleavage of APP.
(§1) Western blotting was performed on a 4-12% Bis-Tris SDS-PAGE system (NuPAGE; Invitrogen, Carlsbad, Calif., USA) as described previously (Costantini et al., 2006; Jonas et al., 2008; Jonas et al., 2010; Ko and Puglielli, 2007; Ko and Puglielli, 2009; Pehar et al., 2010). The following antibodies were used in this study: anti-acetylated lysine (monoclonal; cat. no. ab409; Abcam, Cambridge, Mass., USA); anti-BACE1 (polyclonal; cat. no. ab2077; Abcam); anti-Myc (monoclonal; cat. no. sc-40; santa cruz, Santa Cruz, Calif., USA); anti-ATases/NAT8 (polyclonal; cat. no. AP4957c; Abgent, San Diego, Calif., USA); anti-actin (monoclonal; cat. no. A1978; Sigma, St Louis, Mo., USA); anti-C99 (monoclonal; cat. no. M066-3; MBL, Woburn, Mass., USA); anti-acetylated H3 (polyclonal; cat. no. 06-599, Millipore, Billerica, Mass.); anti-acetylated H4 (polyclonal; cat. no. 06-866, Millipore, Billerica, Mass.); anti-αPCNA (polyclonal; cat. no. AP2835b, Abgent, San Diego, Calif., USA).

ATase1 and ATase2 = assay: Western blot assessment of endogenous ATase1/ATase2 levels in H4 cells; assay type: cell-based, human; settings: 48 hours
Method: FIG. 4. Compound 9 causes degradation of the ATases. (A) H4 cells were treated with the indicated compounds (10 μM) for 48 hours prior to Western blot assessment of BACE1 and ATase1/ATase2 levels in total cell lysates. (B, D and E) Quantification of changes are expressed as percent of control (no treatment) and are the average (n=3)±S.D.*, P<0.05; **, P<0.005; ^#, P<0.0005. (C) ELISA determination of secreted Aβ in the conditioned media of the experiment described in (A). Results are expressed as percent of control (no treatment) and are the average (n=3)±S.D.*, P<0.05; **, P<0.005. (F) CHO cells over-expressing either ATase1 or ATase2 were treated with compound 9 (10 μM) for 48 hours prior to Western blot assessment of ATase1 and ATase2 levels in total cell lysates.
FIG. 13. Compound 9 decreases the levels of both ATase1 and ATase2. (A) H4 cells were treated with the increasing concentrations of compound 9 for 48 hours prior to Western blot assessment of BACE1 and ATase1/ATase2 levels in total cell lysates. (B-D) Quantification of changes are expressed as percent of control (no treatment) and are the average (n=3)±S.D.*, P<0.05; **, P<0.005; ^#, P<0.0005.
as §1, with “AP2835b, Abgent, San Diego, Calif., USA).” left out

[1] = BBB permeability: mass spectrometry of CSF of treated wild-type mice; assay type: in vivo, mouse; settings: 50 mg/kg/day in diet, 1 week
Method: FIGS. 14. (A), (B) and (C) Compound 9 is able to cross the BBB. Wild-type mice (n=5) were fed a diet containing 50 mg/kg/day of compound 9 for one week and then sacrificed. Control animals (n=5) received placebo-containing pellets. CSF was collected and analyzed by mass spectrometry (MS) to detect compound 9. The pick corresponding to compound 9 is indicated. […] Because of the strong hydrophobic properties of the compound, elution was in 100% methanol. Under these conditions most of compound 9 was found protonated and complexed as follows: 1 molecule of compound 9 (protonated):3 molecules of water (1 protonated):1 molecule of methanol. The total mass of the eluted complex was 369.4. This complex is only generated when adding methanol during the elution process for the MS. Compound 9 was never observed in control animals.
To assess BBB permeability properties, a group of 5 wild-type mice received 50 mg/kg/day of compound 9 for 1 week. Animals were then sacrificed and CSF collected for biochemical analysis. Treatment was limited to 1 week because this length of time is usually sufficient to reach equilibrium in biological fluids (Ito, et al., 1998; Singh, 2006; Houston and Galetin, 2008). Concentration and duration of the treatment was based on previous studies with drug-like compounds having similar mass and solubility properties (Ito, et al., 1998; Singh, 2006; Houston and Galetin, 2008).

BACE1 = assay: Western blot of BACE1 in brain tissue homogenates of APP695/swe mice; assay type: in vivo, mouse; settings: 50 mg/kg/day in diet, 4 months
Method: FIG. 16. Compound 9 decreases levels of BACE1 in brain tissue homogenates of APP695/swe transgenic mice. Compound 9 was administered to select transgenic mice for four months, beginning at weaning, with additional transgenic mice used as controls. Brain tissue homogenates were obtained from sacrificed transgenic mice and Western blot assessment of BACE1 in brain tissue homogenates was performed.
A group of non-transgenic and APP695/swe mice were fed a diet containing 50 mg/kg/day of compound 9. Treatment started at weaning (˜6 weeks of age) and lasted 4 months. At the end of treatment, the animals were sacrificed and the electrophysiological properties of hippocampal brain slices (as induced by theta burst stimulation to the Schaffer collaterals) were studied.

- detection in CSF (crosses blood brain barrier) [1]: detect compound 9 in all treated animals
SMILES: O=c1c(Cl)c2oc3ccccc3nc-2c2ccccc12 [Compound 9]
- levels of Aβ in the conditioned media / generation of Aβ (Aβ): decreased levels of Aβ
- cellular levels of C99 (C99): decreased cellular levels of C99
- endogenous levels of ATase1 and ATase2 (ATase1 and ATase2; 10 μM): significantly down-regulate
- levels of the ATases with increasing concentrations (ATase1 and ATase2; increasing concentrations): dose-dependent decrease
- BACE1 levels in brain homogenates (BACE1): marked reduction
